5 compounds from BindingDB's records for doi:10.1016/S0960-894X(97)00175-3 (1997) can be followed below.

The target in this experiment is Squalene monooxygenase (Sus scrofa). The experiment can be described thus: In vitro inhibition of pig liver microsomal squalene epoxidase (SE) by measuring the extend of cholesterol radiolabeling after incubation with [14C]mevalonate. (Liver microsomes are a subcellular fraction often used to study metabolism.)

For orientation: IC50 means the concentration at which inhibition is half-maximal. Lower therefore signals inhibition by little substance.

Regarding `CCN(C/C=C/C#CC(C)(C)C)Cc1cccc(OC[Si](C)(C)c2ccc(N=[N+]=[N-])cc2)c1` [(3-{[(4-Azido-phenyl)-dimethyl-silanyl]-methoxy}-benzyl)-(6,6-dimethyl-hept-2-en-4-ynyl)-ethyl-amine], the IC50 amounted to 520 nM.

`CCN(CC#Cc1ccccc1N=[N+]=[N-])Cc1cccc(OCc2cc(-c3ccsc3)cs2)c1` [[3-(2-Azido-phenyl)-prop-2-ynyl]-[3-([3,3']bithiophenyl-5-ylmethoxy)-benzyl]-ethyl-amine]: the IC50 is above 100000 nM. As for `CCN(CC#Cc1cccc(N=[N+]=[N-])c1)Cc1cccc(OCc2cc(-c3ccsc3)cs2)c1` [[3-(3-Azido-phenyl)-prop-2-ynyl]-[3-([3,3']bithiophenyl-5-ylmethoxy)-benzyl]-ethyl-amine], half-maximal inhibition (IC50) required 270 nM. On to `CCN(CC#Cc1ccc(N=[N+]=[N-])cc1)Cc1cccc(OCc2cc(-c3ccsc3)cs2)c1` [[3-(4-Azido-phenyl)-prop-2-ynyl]-[3-([3,3']bithiophenyl-5-ylmethoxy)-benzyl]-ethyl-amine], for which the IC50 stood at 960 nM. Take `CCN(CC#Cc1ccccc1)Cc1cccc(OCc2cc(-c3ccsc3)cs2)c1` [[3-([3,3']Bithiophenyl-5-ylmethoxy)-benzyl]-ethyl-(3-phenyl-prop-2-ynyl)-amine]: the IC50 was 100 nM.
